By pIC50 is commonly meant the IC50 on a negative log10 scale, so that one unit is a factor of ten. One may read the pEC50 as the negative decadic logarithm of the EC50, by convention in mol/L.

Data on 1 compound can be found in publication PMC11079064, “Discovery of a brain penetrant small molecule antagonist targeting LPA1 receptors to reduce neuroinflammation and promote remyelination in multiple sclerosis” (Scientific Reports, 2024).

The subject of assay [1] is human cortical slice cultures. The assay can be described thus: Human cortical slice culture, CC1+ cells by immunohistochemistry. Type of assay: cell-based. As to the method:
Human donor brain was received 14 h after death on wet ice. Upon receipt, the brain was immediately placed into-ice cold DPBS without calcium or magnesium. Cortical regions containing gray-white border were isolated then sliced on a McIlwain tissue chopper set at 400 µm thickness. […] Slices were then processed for qPCR or immunohistochemistry.
Immunohistological evaluation of oligodendrocytes in human brain slice culture: After compound treatment, slices were fixed in 4% PFA overnight. Slices were gently lifted from the membrane insert and washed with at least five 15 min washes in DPBS containing 0.5% Triton-X 100 (0.5%-DPBS) followed by overnight incubation in primary antibodies in blocking solution. Antibodies used were CC-1 (mouse, 1:250, Millipore, Temecula, CA), Olig2 (rabbit 1:250 CellMarque). Slices were washed with at least five 15 min washes in 0.5%-DPBS followed by incubation with secondary antibodies (anti-mouse Alexa488; anti-rabbit, Alexa568, and Hoechst counterstain) in 0.5%-DPBS. All secondary antibodies were produced in goat (Invitrogen, Carlsbad, CA, Carlsbad, CA) and used at 1:250. Filters were excised from insert, mounted with Fluoromount (Millipore Sigma, St. Louis) on a microscope slide and coverslipped. 2 images per slice were acquired using a Nikon A1R confocal microscope and NIS-Elements software. Images were thresholded and counted using ImageJ.

For a further assay, the system named is microglia. The assay can be described thus: LPA-induced microglial activation in hippocampal slices. Type of assay: cell-based, mouse. Conditions: 3 µM, 10 µM LPA. As for the experimental part:
Microglial activation was then triggered by the addition of 10 µM LPA, slices incubated for 3 additional hours, then fixed. Slices were immunostained against IBA1 and microglial perimeters were measured as a mean of differentiating between ramified/resting versus rounded/activated microglia.
Brains were harvested from mice (postnatal day 20, Charles River). […] 400 µm thick coronal slices were cut on a McIlwain tissue chopper and returned to dissection media and separated manually. […] Slices were incubated for 2 h at 37 °C (4 slices per condition). Microglial activation was initiated by adding LPA (18:1, Avanti Polar Lipids) to a final concentration of 10 µM and incubated for 3 h. Slices were then fixed in formalin and for 2 h.
For immunohistochemistry, slices were washed for 3 × 15 min in 0.5% Triton-X100 and DPBS. Slices were then stained using IBA-1 antibody (Thermo Scientific) in 10% normal goat serum with 0.5% Triton-X100 in DPBS overnight on a rocker. Slices were then washed in 0.5% Triton-X100 in DPBS 3 × 15 min. Goat anti-mouse Alexa 564 (1:500, Invitrogen, Carlsbad, CA) and […] (Invitrogen, Carlsbad, CA) were diluted in DPBS with 0.5% Triton-X100 and incubated for 2h. Slices were washed 3 × 15 min in DPBS with 0.5% Triton-X100, mounted with Fluoromount and imaged on a Nikon A1R confocal microscope.

Assay [2] relates to rat brain meningeal fibroblasts. The assay can be described thus: LPA-induced activation of rat meningeal fibroblasts (COL1+ area). Type of assay: cell-based. Particulars: LPA stimulation, read-out: IC50 of inhibition of increase in COL1+ area. As for the experimental part: Recent work from Dorrier et al., has implicated persistent fibrotic scarring in the CNS in the mouse EAE model and that the contributing cells were of meningeal origin. […] We cultured primary rat or human brain meningeal fibroblasts and applied 10 µM LPA to induce activation. Upon LPA stimulation, we saw a change in morphology that could be quantified as a change in collagen I (COL1^+) area.
Meningeal fibroblasts were isolated from postnatal day 8 CD-1 rats (Charles River Labs, Willington, MA). Meninges were peeled off and digested in Accutase (Thermo Fisher, Waltham, MA, Waltham, MA) for 20 min at room temperature. […] was added to stop protease activity. Digested meninges were dissociated by trituration and cells were strained through a 40 µm nylon mesh and spun down at 800 g for 15 min. The cell pellet was resuspended in DMEM + 10% FBS and plated in a T-75 flask (Corning) for 10 days. Cells were lifted with Accutase and replated into 96-well Perkin Elmer, Boston, MA Viewplates, at 15k per well. The next day, cells were starved in DMEM for 8 h. […] 1 µM LPA or vehicle were added for 5 h. […] Primary antibody was detected using a goat-anti-mouse Alexa488 secondary antibody (Invitrogen, Carlsbad, CA, 1:250) with Hoechst. Wells were imaged on Nikon A1R confocal and Col1^+ area measured normalized to cell number (Hoechst count). […]

Assay [3] has as its system mouse cortical brain slices. The assay can be described thus: Lysolecithin-treated mouse organotypic slice culture, MBP and Caspr immunostaining. The format is cell-based. Conditions: then 5 days treatment. As to the method:
Slices were also evaluated using a histological endpoint. […] Caspr clustering was used as a marker for nodes of Ranvier formation which implicates the presence of functional axons that have responded to myelination[39],[40].
Immunohistological evaluation of MBP and Caspr in mouse brain slice culture: Brain slices were cultured as described above. After compound treatment, slices were fixed in 4% PFA for 30 m, blocked in 10% donkey serum, 0.2% Triton X-100, followed by overnight incubation in primary antibodies in blocking solution. Antibodies used were MBP (rat, 1:500, Millipore, Temecula, CA), Caspr (rabbit 1:250 Abcam, Fremont, CA) Tuj1 (mouse, 1:500, Biolegend, San Diego, CA). Slices were washed with 3 × 15 m PBS followed by incubation with secondary antibodies (anti-rat, Alexa488; anti-rabbit, Alexa568, anti-mouse, Alexa647, Hoechst counterstain) in blocking buffer. All secondary antibodies were produced in donkey (Invitrogen, Carlsbad, CA, Carlsbad, CA) and used at 1:250. Filters were excised from insert, mounted with Fluoromount (Millipore Sigma, St. Louis) on a microscope slide and coverslipped. […] Image analysis was performed using ImageJ. MBP was expressed as MBP surface area normalized to Hoechst cell count; Caspr was expressed as the number of Caspr puncta normalized to Tuj1 intensity.

pEC50, pIC50: −log10 of the molar value. “Also recorded” adds a separate entry of the source. Read-outs that look alike come from different tables or passages of the source.

In the case of `COc1ccc(NC(=O)N(c2ccccc2C(C)C)C2CCC(C(=O)O)CC2)c(OC(F)F)n1` (stereo not drawn) [PIPE-791], in assay [1] (100 nM), the “CC1+ cells” value is “significant increase”. For the same compound, the “differentiation by number of CC1+ cells” value in assay [1] (300 nM) is “significant differentiation”. In addition, in the assay with microglia, the “effect on LPA-induced decrease in microglial perimeter length” value is “inhibited; also recorded: prevented”. The negative logarithm of the IC50 (pIC50) in assay [2] was 7.50. Further, the pEC50 in assay [3] (read-out: EC50 of MBP+ area increase) is 7.13; in assay [3] (read-out: EC50 of increase in number of Caspr puncta), 7.75.
